Results reported in the NIST ThermoML archive (doi:10.1016/j.fluid.2014.05.043).

Assay: mn = molality of the nth substance listed, in mol/kg
Details: 101 kPa, Liquid; for molar conductivity: 293 K, Direct current cell with electrodes; for mass density: Vibrating tube method

CCCCCCCCCCCCCCCCCC(=O)O.NCCO [2-hydroxyethylammonium stearate] + O
Details | molar conductivity [S·m2/mol]
m1 = 2.77e-05 | 0.0501
m1 = 2.83e-05 | 0.0488
m1 = 2.89e-05 | 0.0477
m1 = 2.96e-05 | 0.0464
m1 = 3.03e-05 | 0.0452
m1 = 3.1e-05 | 0.044
m1 = 3.18e-05 | 0.0428
m1 = 3.26e-05 | 0.0415
m1 = 3.34e-05 | 0.0403
m1 = 3.43e-05 | 0.0392
m1 = 3.52e-05 | 0.0383
m1 = 3.61e-05 | 0.0371
m1 = 3.71e-05 | 0.0362
m1 = 3.82e-05 | 0.0347
m1 = 3.93e-05 | 0.0336
m1 = 4.05e-05 | 0.0323
m1 = 4.17e-05 | 0.0311
m1 = 4.31e-05 | 0.0297
m1 = 4.45e-05 | 0.0283
m1 = 4.6e-05 | 0.0271
m1 = 4.76e-05 | 0.0256
m1 = 4.94e-05 | 0.0241
m1 = 5.13e-05 | 0.0227
m1 = 5.33e-05 | 0.0214
m1 = 5.56e-05 | 0.0204
m1 = 5.81e-05 | 0.0194
m1 = 6.09e-05 | 0.0183
m1 = 6.38e-05 | 0.0172
m1 = 6.7e-05 | 0.0163
m1 = 7.07e-05 | 0.0153
m1 = 7.45e-05 | 0.0143

mass density [kg/m3]
Details | m1 = 5.8e-06 | m1 = 1.15e-05 | m1 = 1.73e-05 | m1 = 2.31e-05 | m1 = 2.89e-05
298.15 K | 996 | 994.86 | 997.03 | 996.95 | 997.02
303.15 K | 994.49 | 995.63 | 995.65 | 995.35 | 995.6
308.15 K | 990.78 | 994.03 | 993.99 | 993.62 | 993.99

O [water] + CCCCCCCCCCCCCCCCCC(=O)O.NCCO
m2 = 0
Details | mass density [kg/m3]
298.15 K | 996.06
303.15 K | 994.67
308.15 K | 993.01
